Data published in US20240261258A1, “Presurgical Perineural Administration of Resiniferatoxin For Reduction of Post-Operative Pain” (Sorrento Therapeutics, Inc., priority 2021, published 2024).
Where “and” joins values, the source holds several entries; their conditions need not be identical. Equal entries are not always repeated.

What was measured:
[1] = system: SP nerve axons of sciatic and femoral nerves; test: Quantification of SP immunopositive nerve fibers; assay type: in vivo, dog; conditions: for Density of SP nerve axons in the ipsilateral femoral nerve: not statistically significant
Protocol: FIGS. 2A-J show density of SP nerve axons in representative confocal images of ipsilateral (left; A-D) and contralateral (right; E-H) sciatic nerve from dogs post-TPLO and after different treatment and doses of RTX. Each bar represents the mean±SEM. Data were analyzed by one-way ANOVA followed by Tukey post hoc test; *p<0.05. FIGS. 2I-J are bar graphs of the density of SP nerve axons (density of nerve fibers in mm/mm3) in ipsilateral (I), and contralateral (J) sciatic nerves as measured in n subjects in each group.
FIGS. 4A-J show the density of SP-immunoreactive axons in representative confocal images showing the presence of […] axons from ipsilateral (A-D) and contralateral (E-H) canine femoral nerves from dogs post-TPLO and after treatment of RTX. Each bar represents the mean±SEM. FIGS. 4I-J are bar graphs of the density of SP nerve axons (density of nerve fibers in mm/mm3) in ipsilateral (I), and contralateral (J) femoral nerves as measured in n subjects in each group.
FIG. 4 illustrates the effect of RTX on SP density in nerve fibers innervating the ipsilateral (FIG. 4A-D) and contralateral (FIG. 4E-H) femoral nerves from dogs post-TPLO.

[2] = RTX plasma concentrations after nerve block or local application; assay type: in vivo, dog; parameters: Plasma concentration: unit not given here
Protocol: Fourteen adult female beagle dogs, weighing 11.9±0.6 kg and between 3-5 years of age, were enrolled in this study. Each animal was randomly assigned to one of four groups. Four dogs (group 1) received a femoral and sciatic nerve block with 12.5 μg RTX per nerve (25 μg RTX total) diluted with sterile saline for a total volume of 2 mL (half volume per block). Another four dogs (group 2) received a femoral and a sciatic nerve block with 3.12 μg RTX per nerve block (6.25 μg RTX total) diluted with sterile saline for a total volume of 2 mL (half volume per block). Group 3 (4 animals) received a femoral and sciatic nerve block with 5 mg bupivacaine total (standard of care) plus a total of 50 μg RTX (total volume of 4 mL, concentration 12.5 μg/mL) applied locally to the cut on the tibia for 10 min. Group 4 (2 animals) was the control group and received a femoral and a sciatic nerve block with 5 mg bupivacaine total (standard of care).
Blood (4-5 mL) was collected at the beginning of the study for complete blood count and chemistry parameters. Another 2 mL sample was collected at time 0 (baseline), 5, 15, 45, 60, and 90 minutes, and at 2, 3, 4, 6, and 8 hours after RTX administration for pharmacokinetic analysis to determine how plasma levels of RTX change over time. Dog plasma samples were extracted using an organic solvent mixture, dried under nitrogen, reconstituted and analyzed by reversed-phase HPLC. The mobile phase was nebulized using heated nitrogen in a Z-spray source/interface set to electrospray positive ionization mode. The ionized compounds are detected using tandem mass spectrometry or MS/MS.
RTX Plasma concentrations (pg/mL) were measured in the dogs following administration of RTX solution as femoral and sciatic nerve blocks.

## C=C(C)[C@]12C[C@@H](C)[C@@]34O[C@](Cc5ccccc5)(O[C@@H]1[C@@H]3C=C(COC(=O)Cc1ccc(O)c(OC)c1)C[C@]1(O)C(=O)C(C)=C[C@@H]41)O2 [RTX, resiniferatoxin]
[1]; RTX treated groups, p=0.9122, p=0.9995, p=0.9971
  Density of SP nerve axons in the contralateral sciatic nerve vs control treatment: did not affect
[1]; RTX treatment, p=0.9907, p=0.8812, p=0.9066
  Density of SP nerve axons in the contralateral femoral nerve: did not have an effect
[1]; local administration (50 μg), p=0.0155
  Density of SP axons of the ipsilateral sciatic nerve vs control treatment: statistically significant reduction
[1]; peri-neural 3.12 μg per nerve (6.25 μg total), p=0.0335
  Density of SP axons of the ipsilateral sciatic nerve vs control treatment: statistically significant reduction
[1]; peri-neural 3.12 μg per nerve, p=0.8519
  Density of SP nerve axons in the ipsilateral femoral nerve: marked trend in reducing density
[1]; peri-neural 12.5 μg per nerve (25 μg total), p=0.0112
  Density of SP axons of the ipsilateral sciatic nerve vs control treatment: statistically significant reduction
[1]; peri-neural 12.5 μg per nerve, p=0.1216
  Density of SP nerve axons in the ipsilateral femoral nerve: marked trend in reducing density
[2]; Group 1 High Dose, 25 μg total F/Sc nerve block, 45 min, dogs 0271, 2968, 3837, 5635 in c3-c6
  Plasma concentrations for RTX: BQL (BQL—Below the Quantifiable Limit < 50.0 pg/mL)
[2]; Group 1 High Dose, 25 μg total F/Sc nerve block, 60 min, dogs 0271, 2968, 3837, 5635 in c3-c6
  Plasma concentrations for RTX: BQL (BQL—Below the Quantifiable Limit < 50.0 pg/mL)
[2]; Group 1 High Dose, 25 μg total F/Sc nerve block, 6 h, dogs 0271, 2968, 3837, 5635 in c3-c6
  Plasma concentrations for RTX: 0.0941 ng/mL and 0.182 ng/mL and 0.13 ng/mL
[2]; Group 1 High Dose, 25 μg total F/Sc nerve block, 8 h, dogs 0271, 2968, 3837, 5635 in c3-c6
  Plasma concentrations for RTX: 0.0623 ng/mL and 0.117 ng/mL and 0.0991 ng/mL
[2]; Group 1 High Dose, 25 μg total F/Sc nerve block, Predose, dogs 0271, 2968, 3837, 5635 in c3-c6
  Plasma concentrations for RTX: BQL (BQL—Below the Quantifiable Limit < 50.0 pg/mL)
[2]; Group 2 Low Dose, 6.25 μg total F/Sc nerve block, 0 min, dogs 2561, 3743, 4681, 5686 in c3-c6
  Plasma concentrations for RTX: BQL (BQL—Below the Quantifiable Limit < 50.0 pg/mL)
[2]; Group 2 Low Dose, 6.25 μg total F/Sc nerve block, 5 min, dogs 2561, 3743, 4681, 5686 in c3-c6
  Plasma concentrations for RTX: BQL (BQL—Below the Quantifiable Limit < 50.0 pg/mL)
[2]; Group 2 Low Dose, 6.25 μg total F/Sc nerve block, 15 min, dogs 2561, 3743, 4681, 5686 in c3-c6
  Plasma concentrations for RTX: BQL (BQL—Below the Quantifiable Limit < 50.0 pg/mL)
[2]; Group 2 Low Dose, 6.25 μg total F/Sc nerve block, 45 min, dogs 2561, 3743, 4681, 5686 in c3-c6
  Plasma concentrations for RTX: BQL (BQL—Below the Quantifiable Limit < 50.0 pg/mL)
[2]; Group 2 Low Dose, 6.25 μg total F/Sc nerve block, 60 min, dogs 2561, 3743, 4681, 5686 in c3-c6
  Plasma concentrations for RTX: BQL (BQL—Below the Quantifiable Limit < 50.0 pg/mL)
[2]; Group 2 Low Dose, 6.25 μg total F/Sc nerve block, 6 h, dogs 2561, 3743, 4681, 5686 in c3-c6
  Plasma concentrations for RTX: BQL (BQL—Below the Quantifiable Limit < 50.0 pg/mL)
[2]; Group 2 Low Dose, 6.25 μg total F/Sc nerve block, 8 h, dogs 2561, 3743, 4681, 5686 in c3-c6
  Plasma concentrations for RTX: BQL (BQL—Below the Quantifiable Limit < 50.0 pg/mL)
[2]; Group 2 Low Dose, 6.25 μg total F/Sc nerve block, Predose, dogs 2561, 3743, 4681, 5686 in c3-c6
  Plasma concentrations for RTX: BQL (BQL—Below the Quantifiable Limit < 50.0 pg/mL)
[2]; Group 3 Local, 50 μg on bone incision, 0 min, dogs 2272, 3007, 3722, 9501 in c3-c6
  Plasma concentrations for RTX: BQL (BQL—Below the Quantifiable Limit < 50.0 pg/mL)
[2]; Group 3 Local, 50 μg on bone incision, 5 min, dogs 2272, 3007, 3722, 9501 in c3-c6
  Plasma concentrations for RTX: BQL (BQL—Below the Quantifiable Limit < 50.0 pg/mL)
[2]; Group 3 Local, 50 μg on bone incision, 15 min, dogs 2272, 3007, 3722, 9501 in c3-c6
  Plasma concentrations for RTX: BQL (BQL—Below the Quantifiable Limit < 50.0 pg/mL)
[2]; Group 3 Local, 50 μg on bone incision, 45 min, dogs 2272, 3007, 3722, 9501 in c3-c6
  Plasma concentrations for RTX: BQL (BQL—Below the Quantifiable Limit < 50.0 pg/mL)
[2]; Group 3 Local, 50 μg on bone incision, 60 min, dogs 2272, 3007, 3722, 9501 in c3-c6
  Plasma concentrations for RTX: BQL (BQL—Below the Quantifiable Limit < 50.0 pg/mL)
[2]; Group 3 Local, 50 μg on bone incision, 90 min, dogs 2272, 3007, 3722, 9501 in c3-c6
  Plasma concentrations for RTX: BQL (BQL—Below the Quantifiable Limit < 50.0 pg/mL)
[2]; Group 3 Local, 50 μg on bone incision, 2 h, dogs 2272, 3007, 3722, 9501 in c3-c6
  Plasma concentrations for RTX: BQL (BQL—Below the Quantifiable Limit < 50.0 pg/mL)
[2]; Group 3 Local, 50 μg on bone incision, 3 h, dogs 2272, 3007, 3722, 9501 in c3-c6
  Plasma concentrations for RTX: BQL (BQL—Below the Quantifiable Limit < 50.0 pg/mL)
[2]; Group 3 Local, 50 μg on bone incision, 4 h, dogs 2272, 3007, 3722, 9501 in c3-c6
  Plasma concentrations for RTX: BQL (BQL—Below the Quantifiable Limit < 50.0 pg/mL)
[2]; Group 3 Local, 50 μg on bone incision, 6 h, dogs 2272, 3007, 3722, 9501 in c3-c6
  Plasma concentrations for RTX: BQL (BQL—Below the Quantifiable Limit < 50.0 pg/mL)
[2]; Group 3 Local, 50 μg on bone incision, 8 h, dogs 2272, 3007, 3722, 9501 in c3-c6
  Plasma concentrations for RTX: BQL (BQL—Below the Quantifiable Limit < 50.0 pg/mL)
[2]; Group 3 Local, 50 μg on bone incision, Predose, dogs 2272, 3007, 3722, 9501 in c3-c6
  Plasma concentrations for RTX: BQL (BQL—Below the Quantifiable Limit < 50.0 pg/mL)
[2]; Subject 2968 (group 1), 2 hour timepoint
  Plasma concentration: 1790
[2]; all dogs that received the local application (50 μg)
  RTX plasma levels: below the quantifiable limit at all timepoints
[2]; female, beagle, dog, plasma, 6.25 μg, Group 2 Low Dose, 6.25 μg total F/Sc nerve block, 90 min, dogs 2561, 3743, 4681, 5686 in c3-c6
  concentration at 90 min: 0.085 ng/mL
[2]; female, beagle, dog, plasma, 6.25 μg, Group 2 Low Dose, 6.25 μg total F/Sc nerve block, 2 h, dogs 2561, 3743, 4681, 5686 in c3-c6
  concentration at 2 h: 0.0607 ng/mL
[2]; female, beagle, dog, plasma, 6.25 μg, Group 2 Low Dose, 6.25 μg total F/Sc nerve block, 3 h, dogs 2561, 3743, 4681, 5686 in c3-c6
  concentration at 3 h: 0.0847 ng/mL
[2]; female, beagle, dog, plasma, 6.25 μg, Group 2 Low Dose, 6.25 μg total F/Sc nerve block, 4 h, dogs 2561, 3743, 4681, 5686 in c3-c6
  concentration at 4 h: 0.0506 ng/mL
[2]; female, beagle, dog, plasma, 25 μg, Group 1 High Dose, 25 μg total F/Sc nerve block, 0 min, dogs 0271, 2968, 3837, 5635 in c3-c6
  concentration at 0 min: 0.397 ng/mL
[2]; female, beagle, dog, plasma, 25 μg, Group 1 High Dose, 25 μg total F/Sc nerve block, 5 min, dogs 0271, 2968, 3837, 5635 in c3-c6
  concentration at 5 min: 0.1 ng/mL
[2]; female, beagle, dog, plasma, 25 μg, Group 1 High Dose, 25 μg total F/Sc nerve block, 15 min, dogs 0271, 2968, 3837, 5635 in c3-c6
  concentration at 15 min: 0.0964 ng/mL
[2]; female, beagle, dog, plasma, 25 μg, Group 1 High Dose, 25 μg total F/Sc nerve block, 90 min, dogs 0271, 2968, 3837, 5635 in c3-c6
  concentration at 90 min: 0.0551 ng/mL
[2]; female, beagle, dog, plasma, 25 μg, Group 1 High Dose, 25 μg total F/Sc nerve block, 6 h, dogs 0271, 2968, 3837, 5635 in c3-c6
  concentration at 6 h: 0.105 ng/mL
[2]; female, beagle, dog, plasma, 25 μg, Group 1 High Dose, 25 μg total F/Sc nerve block, 8 h, dogs 0271, 2968, 3837, 5635 in c3-c6
  concentration at 8 h: 0.0656 ng/mL
[2]; high dose group (25 μg total nerve block)
  RTX plasma levels at last time point: still detectable at 8 hours
[2]; low dose group (6.25 μg total nerve block)
  Time after which RTX plasma levels fell to below detectable: 3 to 4 h
[2]; nerve block, regardless of dose, except one dog in group 1 (subject 5635)
  Time after administration until plasma levels of RTX reached detectable levels: at least 90 minutes
